Source: patent US20110105493A1, “HETEROCYCLYL SUBSTITUTED ARYLINDENOPYRIMIDINES AND THEIR USE AS HIGHLY SELECTIVE ADENOSINE A2a RECEPTOR ANTAGONISTS” (priority 2009, published 2011)

Legend:
[1] = target: T1, human adenosine A1 receptor (Homo sapiens, UniProt P30542); assay: Adenosine A1 Receptor Functional Assay (A1GAL2); format: cell-based; details: CHO-K1 cells overexpressing human A1 receptor, cAMP inducible beta-galactosidase reporter, 4 nM r-PIA/1 uM Forskolin agonist challenge
T1 construct: expressed in transfected cells; host or cells: CHO-K1 cells with a cAMP inducible beta-galactosidase reporter gene
T1 sequence (P30542 1-326): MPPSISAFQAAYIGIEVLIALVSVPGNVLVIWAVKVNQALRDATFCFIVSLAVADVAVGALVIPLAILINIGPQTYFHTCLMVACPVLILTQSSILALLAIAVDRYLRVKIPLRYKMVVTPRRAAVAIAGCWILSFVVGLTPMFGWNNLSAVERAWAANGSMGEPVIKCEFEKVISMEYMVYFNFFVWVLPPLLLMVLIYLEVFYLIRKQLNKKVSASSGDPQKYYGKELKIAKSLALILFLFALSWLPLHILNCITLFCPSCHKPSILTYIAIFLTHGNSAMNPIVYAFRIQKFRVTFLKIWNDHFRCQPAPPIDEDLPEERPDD
Method: Adenosine A1 Receptor Functional Assay (A1GAL2)
To initiate the functional assay, cryopreserved CHO—K1 cells overexpressing the human adenosine A1 receptor and containing a cAMP inducible beta-galactosidase reporter gene were thawed, centrifuged, DMSO containing media removed, and then seeded with fresh culture media into clear 384-well tissue culture treated plates (BD #353961) at a concentration of 10K cells/well. Prior to assay, these plates were cultured for two days at 37° C., 5% CO2, 90% Rh. On the day of the functional assay, culture media was removed and replaced with 45 μL assay medium (Hams/F-12 Modified (Mediatech # 10-080CV) supplemented w/0.1% BSA). Test compounds were diluted and 11 point curves created at a 1000× concentration in 100% DMSO. Immediately after addition of assay media to the cell plates, 50 nL of the appropriate test compound antagonist or agonist control curves were added to cell plates using a Cartesian Hummingbird. Compound curves were allowed to incubate at room temperature on cell plates for approximately 15 minutes before addition of a 4 nM r-PIA (Sigma P4532)/1 uM Forskolin (Sigma F3917) agonist challenge (5 μL volume). A control curve of r-PIA in1 uM Forskolin, a DMSO/Media control, and a single dose of Forskolin were also included on each plate. After additions, cell plates were allowed to incubate at 37° C., 5% CO2, 90% Rh for 5.5-6 hours. After incubation, media was removed, and cell plates were washed 1×50 μL with DPBS w/o Ca & Mg (Mediatech 21-031-CV). Into dry wells, 20 μL of 1×Reporter Lysis Buffer (Promega E3971 (diluted in dH2O from 5× stock)) was added to each well and plates frozen at −20° C. overnight. For β-galactosidase enzyme colorimetric assay, plates were thawed out at room temperature and 20 μL 2×assay buffer (Promega) was added to each well. Color was allowed to develop at 37° C., 5% CO2, 90% Rh for 1-1.5 h or until reasonable signal appeared. The colorimetric reaction was stopped with the addition of 60 μL/well 1M sodium carbonate. Plates were counted at 405 nm on a SpectraMax Microplate Reader (Molecular Devices). Data was analyzed in Microsoft Excel and IC/EC50 curves were fit using a standardized macro.

[2] = target: T2, human adenosine A2A receptor (Homo sapiens, UniProt P29274); assay: Adenosine A2A Receptor Functional Assay (A2A GAL2); format: cell-based; details: for IC50: CHO-K1 cells overexpressing human A2A receptor, cAMP inducible beta-galactosidase reporter, 15 nM NECA agonist challenge, read-out: A2AGal2; for A1/A2A: ratio of A1Gal2 to A2AGal2 values
T2 construct: expressed in transfected cells; host or cells: CHO-K1 cells with a cAMP inducible beta-galactosidase reporter gene
Method: Adenosine A2A Receptor Functional Assay (A2A GAL2)
To initiate the functional assay, cryopreserved CHO—K1 cells overexpressing the human adenosine A2A receptor and containing a cAMP inducible beta-galactosidase reporter gene were thawed, centrifuged, DMSO containing media removed, and then seeded with fresh culture media into clear 384-well tissue culture treated plates (BD #353961) at a concentration of 10K cells/well. Prior to assay, these plates were cultured for two days at 37° C., 5% CO2, 90% Rh. On the day of the functional assay, culture media was removed and replaced with 45 μL assay medium (Hams/F-12 Modified (Mediatech # 10-080CV) supplemented w/0.1% BSA). Test compounds were diluted and 11 point curves created at a 1000× concentration in 100% DMSO. Immediately after addition of assay media to the cell plates, 50 nL of the appropriate test compound antagonist or agonist control curves were added to cell plates using a Cartesian Hummingbird. Compound curves were allowed to incubate at room temperature on cell plates for approximately 15 minutes before addition of a 15 nM NECA (Sigma E2387) agonist challenge (5 μL volume). A control curve of NECA, a DMSO/Media control, and a single dose of Forskolin (Sigma F3917) were also included on each plate. After additions, cell plates were allowed to incubate at 37° C., 5% CO2, 90% Rh for 5.5-6 hours. After incubation, media were removed, and cell plates were washed 1×50 μL with DPBS w/o Ca & Mg (Mediatech 21-031-CV). Into dry wells, 20 μL of 1×Reporter Lysis Buffer (Promega E3971 (diluted in dH2O from 5× stock)) was added to each well and plates frozen at −20° C. overnight. For β-galactosidase enzyme colorimetric assay, plates were thawed out at room temperature and 20 μL 2× assay buffer (Promega) was added to each well. Color was allowed to develop at 37° C., 5% CO2, 90% Rh for 1-1.5 h or until reasonable signal appeared. The colorimetric reaction was stopped with the addition of 60 μL/well 1M sodium carbonate. Plates were counted at 405 nm on a SpectraMax Microplate Reader (Molecular Devices). Data was analyzed in Microsoft Excel and IC/EC50 curves were fit using a standardized macro.

T2 sequence (P29274 whole entry): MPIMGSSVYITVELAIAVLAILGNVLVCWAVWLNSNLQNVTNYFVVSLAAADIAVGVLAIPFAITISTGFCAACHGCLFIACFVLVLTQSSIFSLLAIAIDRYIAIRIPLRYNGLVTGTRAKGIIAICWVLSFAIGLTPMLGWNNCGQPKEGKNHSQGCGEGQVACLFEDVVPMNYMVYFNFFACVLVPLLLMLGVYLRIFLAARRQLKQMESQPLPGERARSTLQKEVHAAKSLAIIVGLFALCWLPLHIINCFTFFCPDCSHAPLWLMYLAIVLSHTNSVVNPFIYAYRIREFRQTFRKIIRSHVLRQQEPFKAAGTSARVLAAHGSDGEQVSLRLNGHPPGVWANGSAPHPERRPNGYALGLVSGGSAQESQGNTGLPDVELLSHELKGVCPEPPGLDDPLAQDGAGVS

Row | Compound | IC50 [1] [µM] | IC50 [2] [µM] | A1/A2A [2]
1 | COCCOc1ccc(N2CCN(c3cccc4c3-c3nc(N)nc(-c5ccccc5)c3C4=O)CC2)c(F)c1 [Example 5, 2-Amino-9-{4-[2-fluoro-4-(2-methoxy-ethoxy)-phenyl]-piperazin-1-yl}-4-phenyl-indeno[1,2-d]pyrimidin-5-one] | 0.75 | 0.00049 | 1530.61
2 | Nc1nc(-c2ccccc2)c2c(n1)-c1c(cccc1N1CCN(c3ccc(F)cc3F)CC1)C2=O [Example 6, 2-Amino-9-[4-(2,4-difluoro-phenyl)-piperazin-1-yl]-4-phenyl-indeno[1,2-d]pyrimidin-5-one] | 2.9 | 0.0026 | 1115.38
3 | N#Cc1ccc(N2CCN(c3cccc4c3-c3nc(N)nc(-c5ccccc5)c3C4=O)CC2)nc1 [Example 8, 6-[4-(2-Amino-5-oxo-4-phenyl-5H-indeno[1,2-d]pyrimidin-9-yl)-piperazin-1-yl]-nicotinonitrile] | 2.1 | 0.0027 | 777.778
4 | Nc1nc(-c2ccccc2)c2c(n1)-c1c(cccc1N1CCN(c3ncccc3F)CC1)C2=O [Example 10, 2-Amino-9-[4-(3-fluoro-pyridin-2-yl)-piperazin-1-yl]-4-phenyl-indeno[1,2-d]pyrimidin-5-one] | 1.9 | 0.0026 | 730.769
5 | Nc1nc(-c2ccccc2)c2c(n1)-c1c(cccc1N1CCN(CCc3ccccc3)CC1)C2=O [Example 12, 2-Amino-9-(4-phenethyl-piperazin-1-yl)-4-phenyl-indeno[1,2-d]pyrimidin-5-one] | 1.05 | 0.00227 | 463.233
6 | Nc1nc(-c2ccccc2)c2c(n1)-c1c(cccc1N1CCC(O)(c3ccccc3)CC1)C2=O [Example 13, 2-Amino-9-(4-hydroxy-4-phenyl-piperidin-1-yl)-4-phenyl-indeno[1,2-d]pyrimidin-5-one] | 0.31 | 0.00067 | 462.687
7 | N#Cc1cccnc1N1CCN(c2cccc3c2-c2nc(N)nc(-c4ccccc4)c2C3=O)CC1 [Example 14, 2-[4-(2-Amino-5-oxo-4-phenyl-5H-indeno[1,2-d]pyrimidin-9-yl)-piperazin-1-yl]-nicotinonitrile] | 1.4 | 0.0032 | 437.5
8 | COc1ccc(C2CCN(c3cccc4c3-c3nc(N)nc(-c5ccccc5)c3C4=O)CC2)cc1 [Example 18, 2-Amino-9-[4-(4-methoxy-phenyl)-piperidin-1-yl]-4-phenyl-indeno[1,2-d]pyrimidin-5-one] | 0.6 | 0.0045 | 133.333
9 | CCCN1CCN(c2cccc3c2-c2nc(N)nc(-c4ccccc4)c2C3=O)CC1 [Example 19, 2-Amino-4-phenyl-9-(4-propyl-piperazin-1-yl)-indeno[1,2-d]pyrimidin-5-one] | 1.08 | 0.0103 | 104.858
10 | NC(=O)c1ccc(C2CCN(c3cccc4c3-c3nc(N)nc(-c5ccccc5)c3C4=O)CC2)cc1 [Example 20, 4-[1-(2-Amino-5-oxo-4-phenyl-5H-indeno[1,2-d]pyrimidin-9-yl)-piperidin-4-yl]-benzamide] | 0.15 | 0.0015 | 100

Second part, the molecule after the results:

Row | IC50 [1] [µM] | IC50 [2] [µM] | A1/A2A [2] | Compound
11 | 4.05 | 0.0002 | 20250 | CC(=O)c1ccc(N2CCN(c3cccc4c3-c3nc(N)nc(-c5ccccc5)c3C4=O)CC2)cc1 [Example 1, 9-[4-(4-Acetyl-phenyl)-piperazin-1-yl]-2-amino-4-phenyl-indeno[1,2-d]pyrimidin-5-one]
12 | 9.5 | 0.0016 | 5937.5 | Nc1nc(-c2ccccc2)c2c(n1)-c1c(cccc1N1CCN(c3ccc(F)cn3)CC1)C2=O [Example 2, 2-Amino-9-[4-(5-fluoro-pyridin-2-yl)-piperazin-1-yl]-4-phenyl-indeno[1,2-d]pyrimidin-5-one]
13 | 3.5 | 0.0006 | 5833.33 | N#Cc1ccc(N2CCN(c3cccc4c3-c3nc(N)nc(-c5ccccc5)c3C4=O)CC2)cc1 [Example 3, 4-[4-(2-Amino-5-oxo-4-phenyl-5H-indeno[1,2-d]pyrimidin-9-yl)-piperazin-1-yl]-benzonitrile]
14 | 1.9 | 0.0012 | 1583.33 | Nc1nc(-c2ccccc2)c2c(n1)-c1c(cccc1N1CCN(c3ccccc3F)CC1)C2=O [Example 4, 2-Amino-9-[4-(2-fluoro-phenyl)-piperazin-1-yl]-4-phenyl-indeno[1,2-d]pyrimidin-5-one]
15 | 2.9 | 0.0027 | 1074.07 | N#Cc1ccccc1N1CCN(c2cccc3c2-c2nc(N)nc(-c4ccccc4)c2C3=O)CC1 [Example 7, 2-[4-(2-Amino-5-oxo-4-phenyl-5H-indeno[1,2-d]pyrimidin-9-yl)-piperazin-1-yl]-benzonitrile]
16 | 6.2 | 0.0081 | 765.432 | Nc1nc(-c2ccccc2)c2c(n1)-c1c(cccc1N1CCN(c3ccc(C(F)(F)F)cc3)CC1)C2=O [Example 9, 2-Amino-4-phenyl-9-[4-(4-trifluoromethyl-phenyl)-piperazin-1-yl]-indeno[1,2-d]pyrimidin-5-one]
17 | 0.25 | 0.00036 | 694.444 | COCCOc1ccc(N2CCN(c3cccc4c3-c3nc(N)nc(-c5ccccc5)c3C4=O)CC2)cc1 [Example 11, 2-Amino-9-{4-[4-(2-methoxy-ethoxy)-phenyl]-piperazin-1-yl}-4-phenyl-indeno[1,2-d]pyrimidin-5-one]
18 | 0.1 | 0.00044 | 227.273 | CS(=O)(=O)c1ccc(N2CCN(c3cccc4c3-c3nc(N)nc(-c5ccccc5)c3C4=O)CC2)cc1 [Example 15, 2-Amino-9-[4-(4-methanesulfonyl-phenyl)-piperazin-1-yl]-4-phenyl-indeno[1,2-d]pyrimidin-5-one]
19 | 0.025 | 0.00014 | 178.571 | COc1ccc(N2CCN(c3cccc4c3-c3nc(N)nc(-c5ccccc5)c3C4=O)CC2)cc1 [Example 16, 2-Amino-9-[4-(4-methoxy-phenyl)-piperazin-1-yl]-4-phenyl-indeno[1,2-d]pyrimidin-5-one]
20 | 0.2 | 0.0014 | 142.857 | Nc1nc(-c2ccccc2)c2c(n1)-c1c(cccc1N1CCN(c3ccccn3)CC1)C2=O [Example 17, 2-Amino-4-phenyl-9-(4-pyridin-2-yl-piperazin-1-yl)-indeno[1,2-d]pyrimidin-5-one]
